Experimental data as given in patent publication US11589588B2, “Methods of identification and use of nematicide compounds” (UNIVERSITY OF NEW HAMPSHIRE, priority 2013, dated 2023).

How the values were obtained:
Format in all cases: in vivo
C. elegans [1] = test: Recovery of motility after contact with PDE inhibitor ceased; settings: 24 hours exposure, evaluated 24 hours after inhibitor removed
Protocol: Motility is shown relative to the control condition (i.e., motility of worms not contacted with the test drug). The black bars represent the fraction of motile worms after 24 hours of exposure to the PDE inhibitor. The grey bars represent the fraction of motile worms 24 hours after the exposure to the inhibitor ceased. The experiment was repeated three times and the data points represent the mean plus and minus the standard deviation.
(§1) The dauer state is morphologically similar to the infective states in juvenile phytoparasitic nematodes.
For the study, nematodes were exposed for 24 hours with the PDE inhibitor (at the concentration indicated in FIG. 15) and then plated out and evaluated for normal motility as described elsewhere in the Examples. […] Motility is shown relative to control motility in worms not contacted with the test drug.

C. elegans [2] = test: Motility of dauer state C. elegans exposed to PDE inhibitors; settings: among several PDE inhibitors tested
Protocol: as §1
For this study, worms were contacted with drugs and scored for motility at various time points after the drug treatment to determine how quick the motility defect occurred. Nematodes were scored at 0, 1, 2, 4, 8, and 24 hours after addition of the treatment. Concentrations were 4.9 μM cilostazol, 2.5 μM Rolipram, and 6.6 μM papaverine. […] The time is shown in hours after contact was initiated and the effect was determined by assessing the fraction of contacted works that were motile, relative to control worm motility (i.e., worms not contacted with the tested drug). Cilostazol, rolipram and papaverine were tested. […] The time is shown in hours after contact and the effect was determined by assessing the fraction of contacted works that were motile, relative to control worm motility (controls were worms not contacted with tested drug).

C. elegans [3] = test: Egg hatching / fecundity of C. elegans continuously exposed to PDE inhibitors; settings: continuous exposure at concentrations maximally reducing motility; juveniles counted on Day 5; FIG. 6; experiment performed once
Protocol: The number of newly hatched juveniles on Day 5 was counted and normalized to the reproductive success of the control condition (no inhibitor). This experiment was performed once.
To assess disruption of activities such as developmental progression leading to egg hatching in nematodes, C. elegans eggs are exposed to PDE inhibitors. The nematode eggs are exposed to a range of concentrations of family-specific PDE inhibitors, and inhibitors that prevent egg hatching are identified.
The number of hatched larvae in the treated group was compared to a control (untreated) group and the results are evaluated as a function of time up to 3 days after exposure to the PDE inhibitor.
The ability of these various PDE inhibitors to reduce the fecundity of C. elegans was also examined.

SMILES | reversibility of drug effects on motility (C. elegans [1]) | effectiveness in reducing motility (C. elegans [2]) | effect on egg hatching (number of newly hatched juveniles relative to control) (C. elegans [3])
Cn1cc(-c2ccncc2)c(-c2ccc(OCc3ccc4ccccc4n3)cc2)n1 [MP10] | reversed after 24 hours | most effective in reducing motility | –
CCOC(=O)C1=C[C@]2(CC)CCCN3CCc4c(n1c1ccccc41)[C@@H]32 [vinpocetine] | – | – | most effective in preventing egg hatching
CC(C)Cn1c(=O)n(C)c(=O)c2[nH]cnc21 [IBMX, 3-isobutyl-1-methylxanthine] | – | – | most effective in preventing egg hatching
COc1ccc(C2CNC(=O)C2)cc1OC1CCCC1 (centres unmarked) [rolipram] | reversed after 24 hours | most effective in reducing motility | –
COc1ccc(Cc2nccc3cc(OC)c(OC)cc23)cc1OC [papaverine] | reversed after 24 hours | most effective in reducing motility | –
OCCN(CCO)c1nc(N2CCCCC2)c2nc(N(CCO)CCO)nc(N3CCCCC3)c2n1 [dipyridamole] | – | – | enhanced egg hatching
Cc1[nH]c(=O)c(C#N)cc1-c1ccncc1 [milrinone] | reversed after 24 hours | most effective in reducing motility | –
O=C1CCc2cc(OCCCCc3nnnn3C3CCCCC3)ccc2N1 [cilostazol] | reversed after 24 hours | most effective in reducing motility | most effective in preventing egg hatching
